From patent US8263079B2, “Antibodies against CSF-1R” (ImClone, LLC, priority 2010, dated 2012) come the findings set out here.

The test system of one assay is DU145 prostate cells. Kind of assay: Prostate tumor combination study, DU145 xenograft. In kind it is in vivo, mouse. The following applies: 12 mg/kg IP Q7Dx3, vs saline control, P 0.15. The source says:
Inject Nu/nu mice (male, 7-8 weeks of age) subcutaneously with 1.5×10^7 DU145 prostate cells/mouse and allow tumors to reach 300 mm^3 before treatment. Randomize mice into groups of 10 and treat as follows:
Measure tumor volumes and calculate the T/C % for each treatment as the ratio of the relative tumor volumes versus the control group. Analyze tumor volumes using RM ANOVA.

A further assay deals with HCC-1954 breast cells. Kind of assay: Breast tumor combination studies, HCC-1954 xenograft. The class given is in vivo, mouse. The source says: Inject Nu/nu mice (female, 7-8 weeks of age) subcutaneously with 1×10^7 HCC-1954 breast cells/mouse and allow tumors to reach 300 mm^3 before treatment. Randomize mice into groups of 12 and treat as follows:
Measure tumor volumes and calculate the T/C % for each treatment group as the ratio of the relative tumor volumes versus the control group. Analyze tumor volumes using RM ANOVA.

The target of another assay is T1, CSF-1R (Homo sapiens, UniProt P07333).
T1 construct: expressed in transfected cells
The experiment in a line: Degradation of CSF-1R in NIH-3T3-CSF-1R cells (Western blot, normalized to actin). The class given is cell-based. As to the method: Seed NIH-3T3-CSF-1R cells at 5×10^5 cells/well in a 12 well plate in 1 mL DMEM media containing 10% FBS and 1 mg/mL geniticin. […] CSF-1 is known to induce internalization and degradation of CSF-1R, thereby acting as a positive control for the experiment. Allow CSF-1 to remain on cells for 1 and 5 hours before collecting cells. […] Aspirate medium, lyse cells and run clarified lysates on gels (as described above). Probe transferred proteins with anti-CSF-1R antibodies to determine the amount of receptor for each condition. Probe the same blots with anti-actin antibodies to normalize protein levels. Quantify CSF-1R and actin levels using the Multi-Gauge program to measure band density on the Western blot. The relative total CSF-1R protein level is represented by the total CSF-1R band density divided by the corresponding actin band density.

Consider `CC(=O)O[C@@]12CO[C@@H]1C[C@H](O)[C@@]1(C)C(=O)[C@H](O)C3=C(C)[C@@H](OC(=O)[C@H](O)[C@@H](NC(=O)OC(C)(C)C)c4ccccc4)C[C@@](O)([C@@H](OC(=O)c4ccccc4)[C@H]21)C3(C)C` [Docetaxel], for which the “% T/C” value in the assay on DU145 prostate cells was found to be 59%.
Take `COc1cccc2c1C(=O)c1c(O)c3c(c(O)c1C2=O)C[C@@](O)(C(=O)CO)C[C@@H]3O[C@H]1C[C@H](N)[C@H](O)[C@H](C)O1` [Doxorubicin]: the “% T/C” value in the assay with HCC-1954 breast cells (8 mg/kg IP Q7Dx2, vs saline control, P 0.008) stood at 50%.
In the case of `CC(=O)O[C@H]1C(=O)[C@@]2(C)[C@H]([C@H](OC(=O)c3ccccc3)[C@]3(O)C[C@H](OC(=O)[C@H](O)[C@@H](NC(=O)c4ccccc4)c4ccccc4)C(C)=C1C3(C)C)[C@]1(OC(C)=O)CO[C@@H]1C[C@@H]2O` [Paclitaxel], in the assay on HCC-1954 breast cells (10 mg/kg IP Q7Dx3, vs saline control, P<0.01), the “% T/C” value is listed as 60%.

B1: CSF-1: Colony Stimulating Factor-1, CSF-1R ligand, positive control for receptor degradation (protein, listed as Homo sapiens)
chain: MTAPGAAGRCPPTTWLGSLLLLVCLLASRSITEEVSEYCSHMIGSGHLQSLQRLIDSQMETSCQITFEFVDQEQLKDPVCYLKKAFLLVQDIMEDTMRFRDNTPNAIAIVQLQELSLRLKSCFTKDYEEHDKACVRTFYETPLQLLEKVKNVFNETKNLLDKDWNIFSKNCNNSFAECSSQDVVTKPDCNCLYPKAIPSSDPASVSPHQPLAPSMAPVAGLTWEDSEGTEGSSLLPGEQPLHTVDPGSAKQRPPRSTCQSFEPPETPVVKDSTIGGSPQPRPSVGAFNPGMEDILDSAMGTNWVPEEASGEASEIPVPQGTELSPSRPGGGSMQTEPARPSNFLSASSPLPASAKGQQPADVTGTALPRVGPVRPTGQDWNHTPQKTDHPSALLRDPPEPGSPRISSLRPQGLSNPSTLSAQPQLSRSHSSGSVLPLGELEGRRSTRDRRSPAEPEGGPASEGAARPLPRFNSVPLTDTGHERQSEGSFSPQLQESVFHLLVPSVILVLLAVGGLLFYRWRRRSHQEPQRADSPLEQPEGSPLTQDDRQVELPV
As to B1, in the assay with CSF-1R (100 ng/mL CSF-1, by 5 hours, positive control), the “CSF-1R levels (degradation)” value is listed as “halved”. In the assay with CSF-1R (100 ng/mL CSF-1, positive control), the “time to degradation of CSF-1R” value is no more than 1 h.
